Test results as given in article PMC11822212, “High-throughput screening identifies Aurora kinase B as a critical therapeutic target for Merkel cell carcinoma” (Nature Communications, 2025).
Structures can show the parent of a compound that is named as a salt.

Legend:
[1] = system: MCC cell lines (WAGA, MKL-1, MKL-2, MCC13, MCC26, UISO); experiment: qHTS cell viability, all six MCC cell lines as a group (mean AUC, MCC.avg); assay type: cell-based, human; settings: mean AUC of six MCC cell lines
[2] = system: VN-MCC cell lines (MCC13, MCC26, UISO); experiment: qHTS cell viability, VN-MCC cell lines as a group (mean AUC, VN.MCC.avg); assay type: cell-based, human; settings: for VN-MCC_Avg_AUC: mean AUC of VN-MCC cell lines
[3] = system: control cell lines (HACAT, HEK293T, CRL-7250, NIH-3T3); experiment: qHTS cell viability, control cell lines as a group (mean AUC, Control.avg); assay type: cell-based; settings: mean AUC of control cell lines
MKL-2 cells (VP-MCC) = experiment: qHTS cell viability (CellTiter-Glo, 72 h; primary and follow-up small molecule screen); assay type: cell-based, human
[4] = system: VP-MCC cell lines (WAGA, MKL-1, MKL-2); experiment: qHTS cell viability, VP-MCC cell lines as a group (mean AUC, VP.MCC.avg); assay type: cell-based, human; settings: for VP-MCC_Avg_AUC: mean AUC of VP-MCC cell lines
UISO cells (VN-MCC) = experiment: qHTS cell viability (CellTiter-Glo, 72 h; primary and follow-up small molecule screen); assay type: cell-based, human
WAGA cells (VP-MCC) = experiment: as above; assay type: cell-based, human
MKL-1 cells (VP-MCC) = experiment: as above; assay type: cell-based, human
NIH-3T3 cells = experiment: qHTS cell viability (CellTiter-Glo, 72 h; primary screen), control cell line; assay type: cell-based, mouse
[5] = system: six MCC cell lines and four control cell lines; experiment: qHTS cell viability, all 10 cell lines screened; assay type: cell-based
MCC13 cells (VN-MCC) = experiment: qHTS cell viability (CellTiter-Glo, 72 h; primary and follow-up small molecule screen); assay type: cell-based, human
MCC26 cells (VN-MCC) = experiment: as above; assay type: cell-based, human
HACAT cells = experiment: qHTS cell viability (CellTiter-Glo, 72 h; primary screen), control cell line; assay type: cell-based, human
HEK293T cells = experiment: as above; assay type: cell-based, human
CRL-7250 cells = experiment: as above; assay type: cell-based
[6] = MIPE library, 11-point DRC, sheet S2E
[7] = MIPE library, 11-point DRC, control cell line, sheet S2E

For CCOC(=O)[C@@](C)(N)Cc1ccc(O)c(O)c1 [Methyldopate hydrochloride], the MCC_Avg_AUC ([1]; NPC library) was 411.623, the VN-MCC_Avg_AUC ([2]; NPC library) was 434.044 and the Control-VN-MCC ([2]; NPC library, therapeutic window: Control avg AUC minus VN-MCC avg AUC) was 7.843. For the same compound, the Control_Avg_AUC ([3]; NPC library) was 441.887, the MKL2_AUC (MKL-2 cells (VP-MCC); NPC library, qHTS dose-response AUC, MKL2) was 398.602 and the VP-MCC_Avg_AUC ([4]; NPC library) was 389.202. It also gave a Control-VP-MCC ([4]; NPC library, therapeutic window: Control avg AUC minus VP-MCC avg AUC) of 52.6846, a UISO_AUC (UISO cells (VN-MCC); NPC library, qHTS dose-response AUC, UISO) of 416.553 and a WAGA_AUC (WAGA cells (VP-MCC); NPC library, qHTS dose-response AUC, WAGA) of 402.509. The MKL1_AUC (MKL-1 cells (VP-MCC); NPC library, qHTS dose-response AUC, MKL1) was 366.496, the NIH3T3_AUC (NIH-3T3 cells; NPC library, qHTS dose-response AUC, NIH3T3 control) was 431.18 and the Control-MCC ([5]; NPC library, therapeutic window: Control avg AUC minus MCC avg AUC) was 30.264. For the same compound, the MCC13_AUC (MCC13 cells (VN-MCC); NPC library, qHTS dose-response AUC, MCC13) was 447.588, the MCC26_AUC (MCC26 cells (VN-MCC); NPC library, qHTS dose-response AUC, MCC26) was 437.99 and the HACAT_AUC (HACAT cells; NPC library, qHTS dose-response AUC, HACAT control) was 480.325. The HEK293T_AUC (HEK293T cells; NPC library, qHTS dose-response AUC, HEK293T control) was 443.954 and the CRL7250_AUC (CRL-7250 cells; NPC library, qHTS dose-response AUC, CRL7250 control) was 412.089.
CC#C[C@]1(O)CC[C@H]2[C@@H]3CCC4=CC(=O)CCC4=C3[C@@H](c3ccc(N(C)C)cc3)C[C@@]21C [Mifepristone] showed an MCC_Avg_AUC ([1]; MIPE library, sheet S2E) of 351.459, a Control-VN-MCC ([2]; MIPE library, Control AUC minus VN-MCC AUC (therapeutic window), sheet S2E) of 23.0495 and a VN-MCC_Avg_AUC ([2]; MIPE library, sheet S2E) of 425.738. For the same compound, the Control_Avg_AUC ([3]; MIPE library, sheet S2E) was 448.787, the MKL2_AUC (MKL-2 cells (VP-MCC); [6]) was 266.162 and the “Area under the dose-response curve (AUC) MKL-2 Replicate 1” value (MKL-2 cells (VP-MCC); follow-up screen, MKL-2, replicate 1) was 494.5. The “Area under the dose-response curve (AUC) MKL-2 Replicate 2” value (MKL-2 cells (VP-MCC); follow-up screen, MKL-2, replicate 2) was 503.2, the “Area under the dose-response curve (AUC) MKL-2 Replicate 3” value (MKL-2 cells (VP-MCC); follow-up screen, MKL-2, replicate 3) was 499.4 and the Control-VP-MCC ([4]; MIPE library, Control AUC minus VP-MCC AUC (therapeutic window), sheet S2E) was 171.607. For the same compound, the VP-MCC_Avg_AUC ([4]; MIPE library, sheet S2E) was 277.18, the UISO_AUC (UISO cells (VN-MCC); [6]) was 367.837 and the “Area under the dose-response curve (AUC) UISO Replicate 1” value (UISO cells (VN-MCC); follow-up screen, UISO, replicate 1) was 472.5. The “Area under the dose-response curve (AUC) UISO Replicate 2” value (UISO cells (VN-MCC); follow-up screen, UISO, replicate 2) was 481.5, the “Area under the dose-response curve (AUC) UISO Replicate 3” value (UISO cells (VN-MCC); follow-up screen, UISO, replicate 3) was 472.0 and the WAGA_AUC (WAGA cells (VP-MCC); [6]) was 291.204. For the same compound, the “Area under the dose-response curve (AUC) WAGA Replicate 1” value (WAGA cells (VP-MCC); follow-up screen, WAGA, replicate 1) was 532.2, the “Area under the dose-response curve (AUC) WAGA Replicate 2” value (WAGA cells (VP-MCC); follow-up screen, WAGA, replicate 2) was 542.6 and the “Area under the dose-response curve (AUC) WAGA Replicate 3” value (WAGA cells (VP-MCC); follow-up screen, WAGA, replicate 3) was 501.4. The MKL1_AUC (MKL-1 cells (VP-MCC); [6]) was 274.173, the “Area under the dose-response curve (AUC) MKL-1 Replicate 1” value (MKL-1 cells (VP-MCC); follow-up screen, MKL-1, replicate 1) was 491.0 and the “Area under the dose-response curve (AUC) MKL-1 Replicate 2” value (MKL-1 cells (VP-MCC); follow-up screen, MKL-1, replicate 2) was 482.0. The “Area under the dose-response curve (AUC) MKL-1 Replicate 3” value (MKL-1 cells (VP-MCC); follow-up screen, MKL-1, replicate 3) was 520.5, the NIH3T3_AUC (NIH-3T3 cells; [7]) was 475.344 and the Control-MCC ([5]; MIPE library, Control AUC minus MCC AUC (therapeutic window), sheet S2E) was 97.3285. For the same compound, the MCC13_AUC (MCC13 cells (VN-MCC); [6]) was 450.219, the “Area under the dose-response curve (AUC) MCC13 Replicate 1” value (MCC13 cells (VN-MCC); follow-up screen, MCC13, replicate 1) was 516.1 and the “Area under the dose-response curve (AUC) MCC13 Replicate 2” value (MCC13 cells (VN-MCC); follow-up screen, MCC13, replicate 2) was 505.4. For the same compound, the “Area under the dose-response curve (AUC) MCC13 Replicate 3” value (MCC13 cells (VN-MCC); follow-up screen, MCC13, replicate 3) was 486.2, the MCC26_AUC (MCC26 cells (VN-MCC); [6]) was 459.158 and the “Area under the dose-response curve (AUC) MCC26 Replicate 1” value (MCC26 cells (VN-MCC); follow-up screen, MCC26, replicate 1) was 467.8. For the same compound, the “Area under the dose-response curve (AUC) MCC26 Replicate 2” value (MCC26 cells (VN-MCC); follow-up screen, MCC26, replicate 2) was 425.4, the “Area under the dose-response curve (AUC) MCC26 Replicate 3” value (MCC26 cells (VN-MCC); follow-up screen, MCC26, replicate 3) was 483.6 and the HACAT_AUC (HACAT cells; [7]) was 471.301. The HEK293T_AUC (HEK293T cells; [7]) was 403.35 and the CRL7250_AUC (CRL-7250 cells; [7]) was 445.154.
